The values that follow come from ChEMBL document CHEMBL4706518, “Discovery of MGS0274, an ester prodrug of a metabotropic glutamate receptor 2/3 agonist with improved oral bioavailability” (Eur J Med Chem, 2020).

In general, logD refers to the decadic logarithm of the distribution of all forms, ionised or not, between an organic phase and buffer at a given pH. By bioavailability is commonly meant dose-corrected exposure relative to a reference, in per cent.

Data set [1] can be described thus: Stability of compound in PBS at pH 6.5 assessed as remaining parent compound at 50 ug/ml after 1 hr by HPLC analysis. The format is physicochemical. The following applies: PBS at pH 6.5, pH 6.5, at 50 µg/mL, read-out: Stabilty.
The nature of data set [2]: Stability of compound in HCL at pH 1.2 assessed as remaining parent compound at 50 ug/ml after 1 hr by HPLC analysis. The format is physicochemical. To be noted: HCl at pH 1.2, pH 1.2, at 50 µg/mL, read-out: Stabilty.
The nature of data set [3]: Lipophilicity, logD of compound in n-octanol and phosphate buffered saline at 2 mg after 1.5 hrs by HPLC based shake flask method. The format is physicochemical. The following applies: for logD at 1.5 h: n-octanol/phosphate buffered saline.
The nature of data set [4]: Oral bioavailability in monkey at 4.92 umol/kg measured up to 24 hrs by LC-MS/MS analysis. The following applies: rhesus monkey, in vivo, at 4.92 µmol/kg. The format is ADME, organism-based, Macaca mulatta.

With `CC(C)(C)C(=O)OCOC(=O)[C@H]1[C@@H]2C[C@H](F)[C@@](N)(C(=O)O)[C@@H]21`, the remaining at 1 h, 50 ug/ml in data set [1] was 99%; in data set [2] it was 100%. Further, the logD at 1.5 h in data set [3] is -0.54.

Consider `Cc1oc(=O)oc1COC(=O)[C@H]1[C@@H]2C[C@H](F)[C@@](N)(C(=O)O)[C@@H]21`, for which the remaining at 1 h, 50 ug/ml in data set [1] turned out to be 98%; in data set [2], 99%. This compound also had a log distribution coefficient (logD) at 1.5 h in data set [3] of -1.69.

Turning to `CC(OC(=O)OC12CC3CC(CC(C3)C1)C2)OC(=O)[C@H]1[C@@H]2C[C@H](F)[C@@](N)(C(=O)O)[C@@H]21` (stereo partly drawn), the figures for the remaining at 1 h, 50 ug/ml in data set [1] and in data set [2] were 97% and 95%, respectively. The compound further registered a pH-dependent lipophilicity (logD) at 1.5 h in data set [3] of 1.67.

With `CC(OC(=O)OC1CCCCC1)OC(=O)[C@@]1(N)[C@H]2[C@@H](C[C@@H]1F)[C@@H]2C(=O)O` (stereo partly drawn), the remaining at 1 h, 50 ug/ml came to 25% in data set [1] and 75% in data set [2]. Also, the logD result in data set [3] (1.5 h) is listed as “Nd(Unstable)”.

Regarding `Cc1oc(=O)oc1COC(=O)[C@@]1(N)[C@H]2[C@@H](C[C@@H]1F)[C@@H]2C(=O)O`, the values for the remaining at 1 h, 50 ug/ml in data set [1] and in data set [2] were 54% and 95%, respectively. The compound further showed a log distribution coefficient (logD) at 1.5 h in data set [3] of -0.95.

On to `CC(OC(=O)O[C@@H]1C[C@H](C)CC[C@H]1C(C)C)OC(=O)[C@H]1[C@@H]2C[C@H](F)[C@@](N)(C(=O)O)[C@@H]21` (stereo partly drawn), for which the remaining at 1 h, 50 ug/ml in data set [1] and in data set [2] was 100% in each case. For the same compound, the bioavailability in data set [4] is 58%. Moreover, the logD at 1.5 h in data set [3] worked out at 2.77.

Consider `CC(C)OC(=O)OC(C)OC(=O)[C@H]1[C@@H]2C[C@H](F)[C@@](N)(C(=O)O)[C@@H]21` (stereo partly drawn), for which the results for the remaining at 1 h, 50 ug/ml in data set [1] and in data set [2] were 101% and 102%, respectively. In addition, the pH-dependent lipophilicity (logD) at 1.5 h in data set [3] amounted to 0.06.

For `N[C@]1(C(=O)O)[C@H]2[C@@H](C[C@@H]1F)[C@@H]2C(=O)OC1OC(=O)c2ccccc21` (stereo partly drawn), the values for the remaining at 1 h, 50 ug/ml in data set [1] and in data set [2] were 97% and 99%, respectively. Besides, the logD at 1.5 h in data set [3] was -0.71.

In the case of `CC(OC(=O)OC1CCCCC1)OC(=O)[C@H]1[C@@H]2C[C@H](F)[C@@](N)(C(=O)O)[C@@H]21` (stereo partly drawn), the remaining at 1 h, 50 ug/ml in data set [1] was determined as 97%; in data set [2], 100%. Further, in data set [4], the bioavailability turned out to be 18%. Moreover, in data set [3], the logD at 1.5 h is 0.58.

Take `CC(OC(=O)C(C)C)OC(=O)[C@H]1[C@@H]2C[C@H](F)[C@@](N)(C(=O)O)[C@@H]21` (stereo partly drawn): the remaining at 1 h, 50 ug/ml amounted to 101% in data set [1] and 100% in data set [2]. For the same compound, the logD at 1.5 h in data set [3] was below -0.65.

Consider `CC(C)[C@@H]1CC[C@@H](C)C[C@H]1OC(=O)O[C@H](C)OC(=O)[C@H]1[C@@H]2C[C@H](F)[C@@](N)(C(=O)O)[C@@H]21`, for which, in data set [3], the logD at 1.5 h is above 1.78.
